Our source for the EC50 values is US11884675B2, “Heterocyclic compounds as triggering receptor expressed on myeloid cells 2 agonists and methods of use” (AMGEN INC., priority 2020, dated 2024).

Where only a bound is given, the exact number is not on record here.

For orientation: EC50 means the concentration giving half of the maximal effect.

Sequence of hTREM2 (Q9NZC2 19-230): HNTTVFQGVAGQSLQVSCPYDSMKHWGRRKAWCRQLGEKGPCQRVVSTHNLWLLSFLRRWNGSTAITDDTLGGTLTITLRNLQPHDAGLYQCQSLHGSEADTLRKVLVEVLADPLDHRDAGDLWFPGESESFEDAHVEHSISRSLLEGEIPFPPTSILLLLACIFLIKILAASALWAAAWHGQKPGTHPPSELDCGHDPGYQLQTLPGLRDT
Sequence of hTREM2 (O43914 22-113 partner): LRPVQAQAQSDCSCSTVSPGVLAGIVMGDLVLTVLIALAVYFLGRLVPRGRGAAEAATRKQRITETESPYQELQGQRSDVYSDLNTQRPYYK

The test has as its target hTREM2 (Homo sapiens, UniProt Q9NZC2). In words: TREM2 agonist potency by Syk phosphorylation (AlphaLisa) in HEK293T-hTREM2 cells, used for Examples 306-429. Format: cell-based. Further details: expressed in transfected cells; host or cells: HEK293T (HEK293T-hTREM2 cells). The following applies: HEK293 Cells. How it is done:
In vitro Measurement of Triggering Receptor Expressed on Myeloid Cells 2 activity using cellular phosphorylation of Spleen Tyrosine Kinase (“Syk”) Assays used for Examples 306-429
Measurement of TREM2 agonist potency was done using a HEK cell line expressing human TREM2 and DAP12 (HEK293T-hTREM2 cells). Binding of small molecules to, and activation of, TREM2 increases the phosphorylation of Syk. The resultant levels of Syk phosphorylation were measured using a commercial AlphaLisa reagent kit. To perform the assay, HEK-hTREM2 cells were plated at 14,000 cells per well in a 384 well plate, in 25 μL, of complete growth media and incubated at 37° C., 5% CO2 for 20-24 hours. Prior to the assay, test compounds were diluted in the 384 well plates in assay buffer and allowed to equilibrate for 30 minutes. Growth media was removed from cell plates by inversion on blotting paper, and 25 μL of test compounds in assay buffer was added to cells. Cells were incubated for 45 minutes at room temperature. After 45 minutes, assay buffer was removed and 10 μL of lysis buffer was added. Plates were shaken for 20 minutes at 350 RPM at room temperature. After complete lysis, AlphaLisa reagents were added to the lysate, and fluourescence intensity was measured using a Perkin Elmer Envision plate reader. Intensities were used to generate a standard curve, and % activation was calculated. Curve fitting was performed using Prism v9 software, log(agonist) vs response-variable slope (four parameters), and EC50s were calculated from the curve fit.
The results presented in Table 20 have been generated with the in vitro assay described above for Examples 306-429. This assay may be used to test any of the compounds described herein to assess and characterize a compound's ability to act as an agonist of TREM2.
In general terms: In Alpha technology, singlet oxygen from a donor bead excites a nearby acceptor bead.
On to `COc1cc([C@@H]2CN(c3nc(-c4ccc(Cl)cc4F)c4nc(C)c(C)nc4n3)CCO2)ccn1` [Example 336, (R)-4-(4-(4-chloro-2-fluorophenyl)-6,7-dimethylpteridin-2-yl)-2-(2-methoxypyridin-4-yl)morpholine], for which the EC50 lay within 50 to 500 nM.
The value for `Cc1cc(C2CN(c3nc(-c4ccc(Cl)c(F)c4F)c4nc(C)c(C)nc4n3)CCO2)ccn1` (stereo not shown) [Example 337, 4-(4-(4-chloro-2,3-difluorophenyl)-6,7-dimethylpteridin-2-yl)-2-(2-methylpyridin-4-yl)morpholine] was at most 50 nM; that for `Cc1cnc2c(-c3ccc(F)cc3F)nc([C@@H]3CCO[C@@H](c4cnn(C5CC5)c4)C3)nc2n1` [Example 338, 2-((2R,4R)-2-(1-cyclopropyl-1H-pyrazol-4-yl)tetrahydro-2H-pyran-4-yl)-4-(2,4-difluorophenyl)-7-methylpteridine] was 500 to 3000 nM; that for `Cc1cnc2c(-c3ccc(F)cc3F)nc([C@H]3CCO[C@H](c4cnn(C5CC5)c4)C3)nc2n1` [Example 339, 2-((2S,4S)-2-(1-cyclopropyl-1H-pyrazol-4-yl)tetrahydro-2H-pyran-4-yl)-4-(2,4-difluorophenyl)-7-methylpteridine] was 50 to 500 nM.
The value for `Cc1cnc2c(-c3ccc(C(F)(F)F)nc3)nc(N3CCOC(c4cnn(C5CC5)c4)C3)cc2n1` (stereo not shown) [Example 340, 2-(1-cyclopropyl-1H-pyrazol-4-yl)-4-(2-methyl-5-(6-(trifluoromethyl)pyridin-3-yl)pyrido[3,4-b]pyrazin-7-yl)morpholine] was 50 to 500 nM.
The value for `Cc1cnc2c(-c3ccc(F)cc3F)nc(N3CCOC(c4cnn(C5CC5)c4)C3)cc2n1` (stereo not shown) [Example 341, 2-(1-cyclopropyl-1H-pyrazol-4-yl)-4-(5-(2,4-difluorophenyl)-2-methylpyrido[3,4-b]pyrazin-7-yl)morpholine] was at most 50 nM.
`Cc1nc2cc(N3CCOC(c4cnn(C5CC5)c4)C3)nc(-c3ccc(F)cc3F)c2nc1C` (stereo not shown) [Example 342, 2-(1-cyclopropyl-1H-pyrazol-4-yl)-4-(5-(2,4-difluorophenyl)-2,3-dimethylpyrido[3,4-b]pyrazin-7-yl)morpholine] returned an EC50 of at most 50 nM.
Molecule `Cc1cc(C2CN(c3nc(-c4ccc(Cl)cc4C(F)(F)F)c4nc(C)c(C)nc4n3)CCO2)ccn1` (stereo not shown) [Example 343, 4-(4-(4-chloro-2-(trifluoromethyl)phenyl)-6,7-dimethylpteridin-2-yl)-2-(2-methylpyridin-4-yl)morpholine] registered an EC50 of 50 to 500 nM.
The value for `Cc1cc(C2CN(c3cc4nc(C)c(C)cc4c(-c4ccc(Cl)cc4F)n3)CCO2)ccn1` (stereo not shown) [Example 344, 4-(5-(4-chloro-2-fluorophenyl)-2,3-dimethyl-1,6-naphthyridin-7-yl)-2-(2-methylpyridin-4-yl)morpholine] was at most 50 nM; that for `Cc1cc(C2CN(c3cc4nc(C)c(C)cc4c(-c4ccc(F)cc4F)n3)CCO2)ccn1` (stereo not shown) [Example 346, 4-(5-(2,4-difluorophenyl)-2,3-dimethyl-1,6-naphthyridin-7-yl)-2-(2-methylpyridin-4-yl)morpholine] was at most 50 nM.
The figure for `Cc1cc(C2CN(c3cc4nc(C)c(C)cc4c(-c4ccc(C(F)(F)F)nc4)n3)CCO2)ccn1` (stereo not shown) [Example 347, 4-(2,3-dimethyl-5-(6-(trifluoromethyl)pyridin-3-yl)-1,6-naphthyridin-7-yl)-2-(2-methylpyridin-4-yl)morpholine] is at most 50 nM; for `Cc1nc2cc(N3CCOC(c4cnn(C5CC5)c4)C3)nc(-c3ccc(Cl)cc3F)c2nc1C` (stereo not shown) [Example 348, 4-(5-(4-chloro-2-fluorophenyl)-2,3-dimethylpyrido[3,4-b]pyrazin-7-yl)-2-(1-cyclopropyl-1H-pyrazol-4-yl)morpholine] it is at most 50 nM; for `Cc1nc2cc(N3CCOC(c4cnn(C5CC5)c4)C3)nc(-c3ccc(C(F)(F)F)nc3)c2nc1C` (stereo not shown) [Example 349, 2-(1-cyclopropyl-1H-pyrazol-4-yl)-4-(2,3-dimethyl-5-(6-(trifluoromethyl)pyridin-3-yl)pyrido[3,4-b]pyrazin-7-yl)morpholine] it is at most 50 nM.
The figure for `Cc1cnc2c(-c3ccc(Cl)cc3F)nc([C@@H]3CCO[C@@H](c4cnn(C5CC5)c4)C3)nc2n1` [Example 350, 4-(4-chloro-2-fluorophenyl)-2-((2R,4R)-2-(1-cyclopropyl-1H-pyrazol-4-yl)tetrahydro-2H-pyran-4-yl)-7-methylpteridine] is 500 to 3000 nM; for `Cc1cc(C2CN(c3nc(-c4cc(F)c(Cl)cc4F)c4nc(C)c(C)nc4n3)CCO2)ccn1` (stereo not shown) [Example 352, 4-(4-(4-chloro-2,5-difluorophenyl)-6,7-dimethylpteridin-2-yl)-2-(2-methylpyridin-4-yl)morpholine] it is at most 50 nM.
The molecule `Cc1cc([C@@H]2CN(c3nc(C45CC(C(F)(F)F)(C4)C5)c4ncc(C)nc4n3)CCO2)ccn1` [Example 353, (R)-4-(7-methyl-4-(3-(trifluoromethyl)bicyclo[1.1.1]pentan-1-yl)pteridin-2-yl)-2-(2-methylpyridin-4-yl)morpholine] yielded an EC50 of 50 to 500 nM.
The figure for `Cc1nc2nc(N3CC(C)OC(c4cnn(C5CC5)c4)C3)nc(C34CC(C(F)(F)F)(C3)C4)c2nc1C` (stereo not shown) [Example 356, 2-(1-cyclopropyl-1H-pyrazol-4-yl)-4-(6,7-dimethyl-4-(3-(trifluoromethyl)bicyclo[1.1.1]pentan-1-yl)pteridin-2-yl)-6-methylmorpholine] is at most 50 nM; for `Cc1cnc2c(C34CC(C(F)(F)F)(C3)C4)nc(N3CCO[C@H](c4cnn(C5CC5)c4)C3)nc2n1` [Example 359, (R)-2-(1-cyclopropyl-1H-pyrazol-4-yl)-4-(7-methyl-4-(3-(trifluoromethyl)bicyclo[1.1.1]pentan-1-yl)pteridin-2-yl)morpholine] it is at most 50 nM; for `Cc1cnc2c(C34CC(C(F)(F)F)(C3)C4)nc(C3CCOC(c4cnn(C5CC5)c4)C3)nc2n1` (stereo not shown) [Example 360, 2-(2-(1-cyclopropyl-1H-pyrazol-4-yl)tetrahydro-2H-pyran-4-yl)-7-methyl-4-(3-(trifluoromethyl)bicyclo[1.1.1]pentan-1-yl)pteridine] it is at most 50 nM.
The figure for `Cc1cc([C@H]2CN(c3nc(-c4ccc(Cl)c(F)c4F)c4nc(C)c(C)nc4n3)CCO2)ccn1` [Example 363, (S)-4-(4-(4-chloro-2,3-difluorophenyl)-6,7-dimethylpteridin-2-yl)-2-(2-methylpyridin-4-yl)morpholine] is at most 50 nM.
The figure for `Cc1cc([C@@H]2CN(c3nc(-c4ccc(Cl)c(F)c4F)c4nc(C)c(C)nc4n3)CCO2)ccn1` [Example 364, (R)-4-(4-(4-chloro-2,3-difluorophenyl)-6,7-dimethylpteridin-2-yl)-2-(2-methylpyridin-4-yl)morpholine] is at most 50 nM; for `Cc1nc2cc(N3CC(C)OC(c4cnn(C5CC5)c4)C3)nc(-c3ccc(Cl)cc3F)c2nc1C` (stereo not shown) [Example 367, 4-(5-(4-chloro-2-fluorophenyl)-2,3-dimethylpyrido[3,4-b]pyrazin-7-yl)-2-(1-cyclopropyl-1H-pyrazol-4-yl)-6-methylmorpholine] it is 50 to 500 nM.
Take `Cc1nc2nc(N3CC(C)OC(c4cnn(C5CC5)c4)C3)nc(-c3ccc(F)cc3F)c2nc1C` (stereo not shown) [Example 369, 2-(1-cyclopropyl-1H-pyrazol-4-yl)-4-(4-(2,4-difluorophenyl)-6,7-dimethylpteridin-2-yl)-6-methylmorpholine]: the EC50 was at most 50 nM.
The figure for `Cc1cc(C2CN(c3cc4nc(C)cnc4c(C45CC(C(F)(F)F)(C4)C5)n3)CCO2)ccn1` (stereo not shown) [Example 376, 2-(2-methyl-4-pyridyl)-4-[2-methyl-5-[3-(trifluoromethyl)-1-bicyclo[1.1.1]pentanyl]pyrido[3,4-b]pyrazin-7-yl]morpholine] is 500 to 3000 nM; for `Cc1nc2cc([C@H]3C[C@@H](C)O[C@@H](c4cnn(C5CC5)c4)C3)nc(-c3ccc(F)cc3F)c2nc1C` [Example 380, 7-[(2R,4S,6R)-2-(1-cyclopropylpyrazol-4-yl)-6-methyl-tetrahydropyran-4-yl]-5-(2,4-difluorophenyl)-2,3-dimethyl-pyrido[3,4-b]pyrazine] it is at most 50 nM.
The figure for `Cc1nc2nc(N3CCOC(c4cnn(C5CC5)c4)C3)nc(-c3ccc(Cl)cc3F)c2nc1C` (stereo not shown) [Example 381, 4-[4-(4-chloro-2-fluoro-phenyl)-6,7-dimethyl-pteridin-2-yl]-2-(1-cyclopropylpyrazol-4-yl)morpholine] is at most 50 nM; for `Cc1nc2cc(N3CCO[C@@H](c4cnn(C5CC5)c4)C3)nc(-c3ccc(Cl)cc3F)c2nc1C` [Example 382, (2S)-4-[5-(4-chloro-2-fluoro-phenyl)-2,3-dimethyl-pyrido[3,4-b]pyrazin-7-yl]-2-(1-cyclopropylpyrazol-4-yl)morpholine] it is at most 50 nM.
The value for `Cc1nc2cc(N3CCO[C@H](c4cnn(C5CC5)c4)C3)nc(-c3ccc(Cl)cc3F)c2nc1C` [Example 383, (2R)-4-[5-(4-chloro-2-fluoro-phenyl)-2,3-dimethyl-pyrido[3,4-b]pyrazin-7-yl]-2-(1-cyclopropylpyrazol-4-yl)morpholine] was 50 to 500 nM.
